Source: patent publication US20020072127A1, “Assay of chemical binding” (priority 2000, published 2002)

Assay: Micro-cantilever deflection on ligand-receptor binding (biotin-coated micro-cantilever immersed in water in small vessel)
Source text: Referring to FIG. 1, a micro-cantilever 10 is fixed at one end to a block 12. The micro-cantilever 10 is generally V-shaped in plan, comprising two converging strips 13,14, which are integral with a transverse cross strip 15. It projects 0.2 mm from the block 12, the strips 13 and 14 each being 24 microns wide and the entire micro-cantilever 10 is of silicon nitride of thickness 0.6 microns. The top surface of the micro-cantilever 10 is coated with a 5 nm layer of chromium followed by a 13 nm layer of gold, to improve its optical reflectivity. The gold on one strip 13 is then coated with octadecanethiol, which forms a self-assembled, highly ordered monolayer on gold, and biotin is then bonded to this monolayer. Biotin acts as a selective receptor for avidin.
Referring now to FIG. 2 any deflection or twisting of the micro-cantilever 10 is detected optically, by focusing a light beam from a laser diode 16 onto the cross strip 15, and detecting the reflection with a quadrant photodiode 18. The light intensities detected by the four segments of the photodiodo 19 may be used to determine the deflection of the cross strip 15. If the micro-cantilever 10 is exposed to a solution of avidin, which binds to the biotin, this changes the surface stress of the strip 13, causing the micro-cantilever 10 to twist, so changing the inclination of the cross strip 15.
The time at which the avidin is injected is indicated by the arrow A. Before this time the deflection is substantially constant. The gradual change in deflection over a period of about five minutes, the deflection then reaching a new, steady value differing by h from its initial value. The bending is caused by the surface stress change resulting from the reaction; the change in surface stress is, at least approximately, equal to the change of surface energy, which can be related to the concentration c or the ligand and the equilibrium constant K of the binding reaction onto the surface (i.e. ka/kd, where ka is the adsorption coefficient and kd is the desorption coefficient).

For immunoglobulin G, the “deflection of the micro-cantilever resulting from injection” value (FIG. 5, IgG injected first (arrow P), arbitrary units, steady value after several minutes) was “about 200 units”, the “deflection resulting from the initial injection” value (FIG. 6, concentration in vessel 0.047 μM, after about 10 minutes, arbitrary units) was “about 235 units” and the “deflection resulting from the second injection” value (FIG. 6, concentration raised to 0.068 μM, after a further 10 minutes, arbitrary units) was “about 290 units”.

For avidin, the “binding strength to biotin relative to immunoglobulin G” value (FIG. 5, avidin displaces bound immunoglobulin G) was “binds to biotin more strongly” and the “further deflection of the micro-cantilever” value (FIG. 5, avidin injected (arrow Q) after IgG had bound to biotin, arbitrary units) was “about 200 units”.
